According to ChEMBL document CHEMBL5303573, “Mapping human microbiome drug metabolism by gut bacteria and their genes” (Nature, 2019):

What was measured:
[1] = The drug is tested on Bacteroides xylanisolvens strain: DSM18836 for biotransformation. The drug concentrations were measured before and after a 12-h incubation by liquid-chromatography-coupled mass spectrometry (LC–MS); conditions: 2 µM
[2] = The drug is tested on Clostridium sporogenes strain: ATCC15579 for biotransformation. The drug concentrations were measured before and after a 12-h incubation by liquid-chromatography-coupled mass spectrometry (LC–MS); conditions: 2 µM
[3] = limosilactobacillus reuteri cf48-3a, 12 h, 2 µM
Description: The drug is tested on Lactobacillus reuteri CF48-3A strain: BEI HM-102 for biotransformation. The drug concentrations were measured before and after a 12-h incubation by liquid-chromatography-coupled mass spectrometry (LC–MS)

[4] = The drug is tested on Bacteroides fragilis strain: HMW610 for biotransformation. The drug concentrations were measured before and after a 12-h incubation by liquid-chromatography-coupled mass spectrometry (LC–MS); conditions: 2 µM
[5] = The drug is tested on Blautia luti strain: DSM14534 for biotransformation. The drug concentrations were measured before and after a 12-h incubation by liquid-chromatography-coupled mass spectrometry (LC–MS); assay type: ADME; design: dose 2 uM, timepoint 0 vs 12 hours; conditions: 2 µM
[6] = The drug is tested on Eubacterium ventriosum strain: ATCC27560 for biotransformation. The drug concentrations were measured before and after a 12-h incubation by liquid-chromatography-coupled mass spectrometry (LC–MS); assay type: ADME; design: dose 2 uM, timepoint 0 vs 12 hours; conditions: 2 µM
[7] = The drug is tested on Bacteroides sp. WH2 strain: WH2 for biotransformation. The drug concentrations were measured before and after a 12-h incubation by liquid-chromatography-coupled mass spectrometry (LC–MS); conditions: bacteroides sp. wh2, 12 h, 2 µM
[8] = The drug is tested on Anaerotruncus colihominis strain: DSM17241 for biotransformation. The drug concentrations were measured before and after a 12-h incubation by liquid-chromatography-coupled mass spectrometry (LC–MS); conditions: 2 µM
[9] = The drug is tested on Clostridium ramosum strain: DSM1402 for biotransformation. The drug concentrations were measured before and after a 12-h incubation by liquid-chromatography-coupled mass spectrometry (LC–MS); conditions: thomasclavelia ramosa, 2 µM
[10] = The drug is tested on Dorea formicigenerans strain: ATCC27755 for biotransformation. The drug concentrations were measured before and after a 12-h incubation by liquid-chromatography-coupled mass spectrometry (LC–MS); conditions: 2 µM
[11] = The drug is tested on Bifidobacterium breve strain: DSM20213 for biotransformation. The drug concentrations were measured before and after a 12-h incubation by liquid-chromatography-coupled mass spectrometry (LC–MS); conditions: 2 µM
[12] = The drug is tested on Edwardsiella tarda strain: ATCC23685 for biotransformation. The drug concentrations were measured before and after a 12-h incubation by liquid-chromatography-coupled mass spectrometry (LC–MS); conditions: 2 µM
[13] = The drug is tested on Ruminococcus lactaris strain: ATCC29176 for biotransformation. The drug concentrations were measured before and after a 12-h incubation by liquid-chromatography-coupled mass spectrometry (LC–MS); conditions: 2 µM
[14] = roseburia intestinalis, 12 h, 2 µM
Description: The drug is tested on Roseburia intestinalis strain: L1-82 for biotransformation. The drug concentrations were measured before and after a 12-h incubation by liquid-chromatography-coupled mass spectrometry (LC–MS)

[15] = The drug is tested on Enterobacter cancerogenus strain: ATCC35316 for biotransformation. The drug concentrations were measured before and after a 12-h incubation by liquid-chromatography-coupled mass spectrometry (LC–MS); conditions: 2 µM
[16] = The drug is tested on Ruminococcus torques strain: ATCC27756 for biotransformation. The drug concentrations were measured before and after a 12-h incubation by liquid-chromatography-coupled mass spectrometry (LC–MS); assay type: ADME; design: dose 2 uM, timepoint 0 vs 12 hours; conditions: 2 µM
[17] = The drug is tested on Bacteroides fragilis strain: HMW615 for biotransformation. The drug concentrations were measured before and after a 12-h incubation by liquid-chromatography-coupled mass spectrometry (LC–MS); conditions: 2 µM
[18] = bacteroides thetaiotaomicron, 12 h, 2 µM
Description: The drug is tested on Bacteroides thetaiotaomicron strain: 3731 for biotransformation. The drug concentrations were measured before and after a 12-h incubation by liquid-chromatography-coupled mass spectrometry (LC–MS)

[19] = The drug is tested on Ruminococcus gnavus strain: ATCC29149 for biotransformation. The drug concentrations were measured before and after a 12-h incubation by liquid-chromatography-coupled mass spectrometry (LC–MS); conditions: mediterraneibacter gnavus, 2 µM
[20] = bacteroides intestinalis, 12 h, 2 µM
Description: The drug is tested on Bacteroides intestinalis strain: DSM17393 for biotransformation. The drug concentrations were measured before and after a 12-h incubation by liquid-chromatography-coupled mass spectrometry (LC–MS)

CN1CCN(C(=O)O[C@H]2c3nccnc3C(=O)N2c2ccc(Cl)cn2)CC1 [ESZOPICLONE]
Bacterial Biotransformation [1]: Compound NOT metabolized | Bacterial Biotransformation [2]: Compound NOT metabolized | Bacterial Biotransformation [3]: Compound NOT metabolized | Bacterial Biotransformation [4]: Compound NOT metabolized | Bacterial Biotransformation [5]: Compound NOT metabolized | Bacterial Biotransformation [6]: Compound NOT metabolized | Bacterial Biotransformation [7]: Compound NOT metabolized | Bacterial Biotransformation [8]: Compound metabolized | Bacterial Biotransformation [9]: Compound NOT metabolized | Bacterial Biotransformation [10]: Compound NOT metabolized | Bacterial Biotransformation [11]: Compound NOT metabolized | Bacterial Biotransformation [12]: Compound NOT metabolized | Bacterial Biotransformation [13]: Compound NOT metabolized | Bacterial Biotransformation [14]: Compound NOT metabolized | Bacterial Biotransformation [15]: Compound NOT metabolized | Bacterial Biotransformation [16]: Compound NOT metabolized | Bacterial Biotransformation [17]: Compound NOT metabolized | Bacterial Biotransformation [18]: Compound NOT metabolized | Bacterial Biotransformation [19]: Compound NOT metabolized

O=C1[C@H](CC[C@H](O)c2ccc(F)cc2)[C@@H](c2ccc(O)cc2)N1c1ccc(F)cc1 [EZETIMIBE]
Bacterial Biotransformation [1]: Compound NOT metabolized | Bacterial Biotransformation [2]: Compound metabolized | Bacterial Biotransformation [3]: Compound NOT metabolized | Bacterial Biotransformation [4]: Compound NOT metabolized | Bacterial Biotransformation [5]: Compound NOT metabolized | Bacterial Biotransformation [6]: Compound metabolized | Bacterial Biotransformation [7]: Compound NOT metabolized | Bacterial Biotransformation [8]: Compound NOT metabolized | Bacterial Biotransformation [9]: Compound NOT metabolized | Bacterial Biotransformation [10]: Compound NOT metabolized | Bacterial Biotransformation [11]: Compound NOT metabolized | Bacterial Biotransformation [12]: Compound NOT metabolized | Bacterial Biotransformation [13]: Compound NOT metabolized | Bacterial Biotransformation [14]: Compound NOT metabolized | Bacterial Biotransformation [15]: Compound NOT metabolized | Bacterial Biotransformation [16]: Compound NOT metabolized | Bacterial Biotransformation [17]: Compound NOT metabolized | Bacterial Biotransformation [18]: Compound NOT metabolized | Bacterial Biotransformation [19]: Compound NOT metabolized

O=C1NCC2(CCN(CCc3ccccc3)CC2)O1 [FENSPIRIDE]
Bacterial Biotransformation [1]: Compound NOT metabolized | Bacterial Biotransformation [2]: Compound NOT metabolized | Bacterial Biotransformation [3]: Compound NOT metabolized | Bacterial Biotransformation [4]: Compound metabolized | Bacterial Biotransformation [5]: Compound NOT metabolized | Bacterial Biotransformation [6]: Compound NOT metabolized | Bacterial Biotransformation [7]: Compound NOT metabolized | Bacterial Biotransformation [8]: Compound NOT metabolized | Bacterial Biotransformation [9]: Compound NOT metabolized | Bacterial Biotransformation [10]: Compound NOT metabolized | Bacterial Biotransformation [11]: Compound NOT metabolized | Bacterial Biotransformation [12]: Compound NOT metabolized | Bacterial Biotransformation [13]: Compound NOT metabolized | Bacterial Biotransformation [14]: Compound NOT metabolized | Bacterial Biotransformation [15]: Compound NOT metabolized | Bacterial Biotransformation [16]: Compound NOT metabolized | Bacterial Biotransformation [17]: Compound metabolized | Bacterial Biotransformation [18]: Compound metabolized | Bacterial Biotransformation [19]: Compound NOT metabolized

COc1ccc2c(c1)c(CC(=O)O)c(C)n2C(=O)c1ccc(Cl)cc1 [INDOMETHACIN]
Bacterial Biotransformation [1]: Compound metabolized | Bacterial Biotransformation [2]: Compound NOT metabolized | Bacterial Biotransformation [3]: Compound metabolized | Bacterial Biotransformation [4]: Compound NOT metabolized | Bacterial Biotransformation [5]: Compound NOT metabolized | Bacterial Biotransformation [6]: Compound metabolized | Bacterial Biotransformation [7]: Compound metabolized | Bacterial Biotransformation [20]: Compound metabolized | Bacterial Biotransformation [8]: Compound NOT metabolized | Bacterial Biotransformation [9]: Compound NOT metabolized | Bacterial Biotransformation [10]: Compound NOT metabolized | Bacterial Biotransformation [11]: Compound NOT metabolized | Bacterial Biotransformation [12]: Compound NOT metabolized | Bacterial Biotransformation [14]: Compound metabolized | Bacterial Biotransformation [15]: Compound NOT metabolized | Bacterial Biotransformation [16]: Compound NOT metabolized | Bacterial Biotransformation [17]: Compound NOT metabolized | Bacterial Biotransformation [18]: Compound metabolized | Bacterial Biotransformation [19]: Compound NOT metabolized

CC(CCc1ccccc1)NCC(O)c1ccc(O)c(C(N)=O)c1 (stereo not drawn) [LABETALOL]
Bacterial Biotransformation [1]: Compound NOT metabolized | Bacterial Biotransformation [2]: Compound NOT metabolized | Bacterial Biotransformation [3]: Compound NOT metabolized | Bacterial Biotransformation [4]: Compound NOT metabolized | Bacterial Biotransformation [5]: Compound NOT metabolized | Bacterial Biotransformation [6]: Compound NOT metabolized | Bacterial Biotransformation [7]: Compound NOT metabolized | Bacterial Biotransformation [20]: Compound NOT metabolized | Bacterial Biotransformation [9]: Compound NOT metabolized | Bacterial Biotransformation [10]: Compound NOT metabolized | Bacterial Biotransformation [11]: Compound NOT metabolized | Bacterial Biotransformation [12]: Compound NOT metabolized | Bacterial Biotransformation [13]: Compound NOT metabolized | Bacterial Biotransformation [14]: Compound NOT metabolized | Bacterial Biotransformation [15]: Compound NOT metabolized | Bacterial Biotransformation [16]: Compound NOT metabolized | Bacterial Biotransformation [17]: Compound NOT metabolized | Bacterial Biotransformation [18]: Compound NOT metabolized | Bacterial Biotransformation [19]: Compound NOT metabolized

COCCc1ccc(OCC(O)CNC(C)C)cc1.COCCc1ccc(OCC(O)CNC(C)C)cc1.O=C(O)C(O)C(O)C(=O)O (stereo not drawn) [METOPROLOL TARTRATE]
Bacterial Biotransformation [2]: Compound NOT metabolized | Bacterial Biotransformation [3]: Compound NOT metabolized | Bacterial Biotransformation [4]: Compound NOT metabolized | Bacterial Biotransformation [5]: Compound NOT metabolized | Bacterial Biotransformation [6]: Compound NOT metabolized | Bacterial Biotransformation [7]: Compound NOT metabolized | Bacterial Biotransformation [20]: Compound NOT metabolized | Bacterial Biotransformation [8]: Compound NOT metabolized | Bacterial Biotransformation [9]: Compound NOT metabolized | Bacterial Biotransformation [10]: Compound NOT metabolized | Bacterial Biotransformation [11]: Compound NOT metabolized | Bacterial Biotransformation [12]: Compound NOT metabolized | Bacterial Biotransformation [13]: Compound NOT metabolized | Bacterial Biotransformation [14]: Compound NOT metabolized | Bacterial Biotransformation [15]: Compound NOT metabolized | Bacterial Biotransformation [16]: Compound NOT metabolized | Bacterial Biotransformation [17]: Compound NOT metabolized | Bacterial Biotransformation [19]: Compound NOT metabolized
